Test results from US20220041647A1, “ESTRA-1,3,5(10)-TRIENE COMPOUNDS CONDENSED IN POSITION 16(17) WITH A PYRAZOLE RING AS INHIBITORS OF 17-HSD1” (FORENDO PHARMA LTD, priority 2018, published 2022).

Columns and labels:
Format in all cases: biochemical
[1] = biological target: T1, recombinant human 17β-HSD1 (Homo sapiens, UniProt P14061); assay: Inhibition of recombinant human 17β-HSD1 (estrone to estradiol conversion, HPLC/radioactivity); conditions: compound 100 nM; 30 nM estrone, 1 mM NADPH, 30 min RT
T1 construct: made in house; host or cells: Sd9 (Sf9) insect cells, baculovirus (Bac to Bac Expression System)
T1 sequence (P14061 1-328): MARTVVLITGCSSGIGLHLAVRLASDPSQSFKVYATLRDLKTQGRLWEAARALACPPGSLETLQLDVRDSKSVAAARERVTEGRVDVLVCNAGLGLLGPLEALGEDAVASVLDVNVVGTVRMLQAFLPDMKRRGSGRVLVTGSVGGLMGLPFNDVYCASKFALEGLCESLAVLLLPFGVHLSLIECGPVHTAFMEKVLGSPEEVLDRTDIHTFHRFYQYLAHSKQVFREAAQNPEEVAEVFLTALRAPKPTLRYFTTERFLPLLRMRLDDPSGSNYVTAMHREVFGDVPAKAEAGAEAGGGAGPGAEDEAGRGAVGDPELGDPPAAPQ
Method: 17β-HSD1 production and isolation: Recombinant baculovirus was generated by the “Bac to Bac Expression System” (Invitrogen). Recombinant bacmid was transfected to Sd9 insect cells using “Cellfectin Reagent” (Invitrogen). 60 h later cells were harvested; the microsomal fraction was isolated as described by Puranen, T. J., Poutanen, M. H., Peltoketo, H. E., Vihko, P. T. and Vihko, R. K. (1994) Site-directed mutagenesis of the putative active site of human 17 β-hydroxysteroid dehydrogenase type 1. Biochem. J. 304: 289-293. Aliquots were stored frozen until determination of enzymatic activity.
Assay—Inhibition of recombinant human 17β-HSD1: Recombinant protein (1 μg/ml) was incubated in 20 mM KH2PO4 pH 7.4 with 30 nM estrone (including 800 000 cpm/ml of ^3H-estrone) and 1 mM NADPH for 30 min at RT, in the presence of the potential inhibitor at concentrations 1 μM or 0.1 μM. Inhibitor stock solutions were prepared in DMSO. Final concentration of DMSO was adjusted to 1% in all samples. The enzyme reaction was stopped by addition of 10% trichloroacetic acid (final concentration). Samples were centrifuged in a microtiter plate at 4000 rpm for 10 min. Supernatants were applied to reverse phase HPLC on a Waters Symmetry C18 column, equipped with a Waters Sentry Guard column. Isocratic HPLC runs were performed at RT at a flow rate of 1 ml/min in acetonitrile:water 48:52 as running solvent. Radioactivity was monitored in the eluate by a Scintillation Analyzer. Total radioactivity for estrone and estradiol were determined in each sample and percent conversion of estrone to estradiol was calculated according to the following formula:
% conversion=100×{(cpm estradiol in sample with inhibitor)/[(cpm estrone in sample with inhibitor)+(cpm estradiol in sample with inhibitor)]}/{[(cpm estradiol in sample without inhibitor)/[(cpm estrone in sample without inhibitor)+(cpm estradiol in sample without inhibitor)]}.
(§1) Percent inhibition was calculated followingly: % inhibition=100−% conversion.

[2] = biological target: T2, recombinant human 17β-HSD2 (Homo sapiens, UniProt P37059); assay: Inhibition of recombinant human 17β-HSD2 (estradiol to estrone conversion, HPLC/radioactivity); conditions: compound 1 μM; 50 nM estradiol, 1 mM NADH, 30 min RT
T2 construct: made in house; host or cells: Sd9 (Sf9) insect cells, baculovirus (Bac to Bac Expression System)
T2 sequence (P37059 1-387): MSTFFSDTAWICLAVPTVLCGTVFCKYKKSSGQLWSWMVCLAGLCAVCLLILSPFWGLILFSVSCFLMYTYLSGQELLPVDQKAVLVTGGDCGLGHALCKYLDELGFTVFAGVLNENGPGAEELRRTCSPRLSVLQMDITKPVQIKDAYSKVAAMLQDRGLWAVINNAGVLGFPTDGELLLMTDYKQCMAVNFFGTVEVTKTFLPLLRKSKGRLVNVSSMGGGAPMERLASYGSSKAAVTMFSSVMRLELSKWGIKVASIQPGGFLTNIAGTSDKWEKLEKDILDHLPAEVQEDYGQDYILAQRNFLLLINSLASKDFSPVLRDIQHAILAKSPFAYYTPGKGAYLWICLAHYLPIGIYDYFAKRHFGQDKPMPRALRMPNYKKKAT
Method: 17β-HSD2 production and isolation: Similarly to 173-HSD1 the Recombinant baculovirus was generated by the “Bac to Bac Expression System” (Invitrogen). Recombinant bacmid was transfected to Sd9 insect cells using “Cellfectin Reagent” (Invitrogen). 60 h later cells were harvested and supernatant were fractionated by the following protocol: • cells were dissolved into 40 ml of A-buffer (40 mM TRIS, pH8.0, 20% glycerol, 20 μM NAD, 0.4 mM PMSF, 150 mM NaCl, 0.5% dodecyl-β-maltoside+protease inhibitor cocktail) • cells were sonicated • lysate was incubated on ice for 15 min • lysate was centrifuged 5000 rpm 15 min, +4° C. • centrifugation of the supernatant 180 000 g 30 min, +4° C. • pellet was dissolved into 8 ml of A-buffer • not resuspended material was removed by centrifugation 5000 rpm 15 min, +4° C. • the clear supernatant was divided into 100 μl aliquots and were stored frozen until determination of enzymatic activity.
The amount of 173-HSD2 was analysed by immunoblotting and total protein concentration of each extract batch was determined.
Assay—Inhibition of recombinant human 17β-HSD2: Recombinant protein (4 μg/ml) was incubated in 20 mM KH2PO4 pH 8.5 with 50 nM estradiol (including 800 000 cpm/ml of ^3H-estradiol) and 1 mM NADH for 30 min at RT, in the presence of the potential inhibitor at concentrations 1 μM or 0.1 μM. Inhibitor stock solutions were prepared in DMSO. Final concentration of DMSO was adjusted to 1% in all samples. The enzyme reaction was stopped by addition of 10% trichloroacetic acid (final concentration). Samples were centrifuged in a microtiter plate at 4000 rpm for 10 min. Supernatants were applied to reverse phase HPLC on a Waters Symmetry C18 column, equipped with a Waters Sentry Guard column. Isocratic HPLC runs were performed at RT at a flow rate of1 ml/min in acetonitrile:water 48:52 as running solvent. Radioactivity was monitored in the eluate by a Scintillation Analyzer. Total radioactivity for estrone and estradiol were determined in each sample and percent conversion of estradiol to estrone was calculated according to the following formula:
% conversion=100×{(cpm estrone in sample with inhibitor)/[(cpm estradiol in sample with inhibitor)+(cpm estrone in sample with inhibitor)]}/{[(cpm estrone in sample without inhibitor)/[(cpm estradiol in sample without inhibitor)+(cpm estrone in sample without inhibitor)]}.
as §1

[3] = tested on: HSD1 enzyme that is expressed in rabbit placenta tissue; assay: Inhibition of E1 to E2 conversion in rabbit placenta tissue homogenate; conditions: compound 100 nM, 30 nM estrone, 1 mM β-NADPH, 30 min
Method: The assay is based on an enzymatic reaction where HSD1 enzyme that is expressed in rabbit placenta tissue converts its natural substance estrone (E1) to estradiol (E2) in the presence of a co-factor β-NADPH.
Homogenization of rabbit placenta tissue: Weight a piece of the frozen tissue into a Precellys ck28 bead tube. Add buffer solution (20 mM KH2PO4 with 1 mM EDTA, pH 7.4) in 1:2 ratio (e.g. 300 mg of tissue:600 μl reaction buffer solution). Insert the bead tubes to homogenizer and homogenize 2×30 s. 6000 rpm.
Centrifugated 5 min., 2600 rpm at +4° C. and collect supernatant. Aliquots of homogenate are stored in −80° C.
Assay—Inhibition of E1 to E2 conversion in rabbit placenta tissue: The reaction takes place in a buffer solution (20 mM KH2PO4 with 1 mM EDTA, pH 7,4), including appropriate amount of rabbit placenta homogenate, co-factor (1 mM β-NADPH), Substrate (30 nM estrone), labelled substrate as tracer (5 nM [^3H]-estrone), and the potential inhibitor at concentrations 1 μM or 0.1 μM. Inhibitor stock solutions were prepared in DMSO. Final concentration of DMSO was adjusted to 1% in all samples. During a 30-minute incubation part of the estrone is converted to estradiol. The reaction is stopped by lowering the pH to 1 with 10% trichloro acetic acid (TCA). The substrate and conversion products are analyzed by HPLC and a Scintillation counter analyzer. Total radioactivity for estrone and estradiol were determined in each sample and percent conversion of estrone to estradiol was calculated according to the following formula:
% conversion=100×{(cpm estradiol in sample with inhibitor)/[(cpm estrone in sample with inhibitor)+(cpm estradiol in sample with inhibitor)]}/{(cpm estradiol in sample without inhibitor)/[(cpm estrone in sample without inhibitor)+(cpm estradiol in sample without inhibitor)]}.
as §1

| Compound | inhibition at 0.1 µM [1] [%] | inhibition at 1 µM [2] [%] | Rabbit placenta inhibition % @100 nM [3] [%] |
| --- | --- | --- | --- |
| Cc1nnc(NC(=O)CC[C@@H]2c3c[nH]nc3[C@@]3(C)CCC4c5cccc(F)c5CCC4C23)o1 (stereo partly drawn) [Compound 66, 3-((8aS,12S)-3-fluoro-8a-methyl-1,2,6b,7,8,8a,10,12,12a,12b-decahydronaphtho[2′,1′:4,5]indeno[1,2-c]pyrazol-12-yl)-N-(5-methyl-1,3,4-oxadiazol-2-yl)propanamide] | 74 | 3 | 39 |
| CN(C)C(=O)c1ccc(NC(=O)CC[C@@H]2c3c[nH]nc3[C@@]3(C)CCC4c5ccccc5CCC4C23)nc1 (stereo partly drawn) [Compound 183, N,N-dimethyl-6-(3-((8aS,12S)-8a-methyl-1,2,6b,7,8,8a,10,12,12a,12b-decahydronaphtho[2′,1′:4,5]indeno[1,2-c]pyrazol-12-yl)propanamido)nicotinamide] | 91 | 10 | 50 |
| CN(CC1CC1)C(=O)CC[C@@H]1c2c[nH]nc2[C@@]2(C)CCC3c4cccc(F)c4CCC3C12 (stereo partly drawn) [Compound 60, N-(cyclopropylmethyl)-3-((8aS,12S)-3-fluoro-8a-methyl-1,2,6b,7,8,8a,10,12,12a,12b-decahydronaphtho[2′,1′:4,5]indeno[1,2-c]pyrazol-12-yl)-N-methylpropanamide] | 93 | 9 | 16 |
| C[C@]12CCC3c4cccc(F)c4CCC3C1[C@H](CCC(=O)Nc1nncs1)c1c[nH]nc12 (stereo partly drawn) [Compound 81, 3-((8aS,12S)-3-fluoro-8a-methyl-1,2,6b,7,8,8a,10,12,12a,12b-decahydronaphtho[2′,1′:4,5]indeno[1,2-c]pyrazol-12-yl)-N-(1,3,4-thiadiazol-2-yl)propanamide] | 81 | 3 | 31 |
| C[C@]12CCC3c4cccc(F)c4CCC3C1[C@H](CCC(=O)Nc1cc(N3CCOCC3)ccn1)c1c[nH]nc12 (stereo partly drawn) [Compound 240, 3-((8aS,12S)-3-fluoro-8a-methyl-1,2,6b,7,8,8a,10,12,12a,12b-decahydronaphtho[2′,1′:4,5]indeno[1,2-c]pyrazol-12-yl)-N-(4-morpholinopyridin-2-yl)propanamide] | 84 | 2 | 35 |
| C[C@]12CCC3c4ccccc4CCC3C1[C@H](CCC(=O)N1CCOCC1)c1c[nH]nc12 (stereo partly drawn) [Compound 249, 3-((8aS,12S)-8a-methyl-1,2,6b,7,8,8a,10,12,12a,12b-decahydronaphtho[2′,1′:4,5]indeno[1,2-c]pyrazol-12-yl)-1-morpholinopropan-1-one] | 59 | 7 |  |
| C[C@]12CCC3c4ccccc4CCC3C1[C@H](CCC(=O)Nc1ncc(F)cc1F)c1c[nH]nc12 (stereo partly drawn) [Compound 261, N-(3,5-difluoropyridin-2-yl)-3-((8aS,12S)-8a-methyl-1,2,6b,7,8,8a,10,12,12a,12b-decahydronaphtho[2′,1′:4,5]indeno[1,2-c]pyrazol-12-yl)propanamide] | 50 | 9 |  |
| C[C@]12CCC3c4ccc(F)cc4CCC3C1[C@H](CCC(=O)N1CCCC1)c1c[nH]nc12 (stereo partly drawn) [Compound 117, 3-((8aS,12S)-4-fluoro-8a-methyl-1,2,6b,7,8,8a,10,12,12a,12b-decahydronaphtho[2′,1′:4,S]indeno[1,2-c]pyrazol-12-yl)-1-(pyrrolidin-1-yl)propan-1-one] | 73 | 2 |  |
| C[C@]12CCC3c4ccccc4CCC3C1[C@H](CCC(=O)Nc1ncccc1F)c1c[nH]nc12 (stereo partly drawn) [Compound 264, N-(3-fluoropyridin-2-yl)-3-((8aS,12S)-8a-methyl-1,2,6b,7,8,8a,10,12,12a,12b-decahydronaphtho[2′,1′:4,5]indeno[1,2-c]pyrazol-12-yl)propanamide] | 54 | 4 |  |
| CC(C)(C)NC(=O)CC[C@@H]1c2c[nH]nc2[C@@]2(C)CCC3c4cccc(F)c4CCC3C12 (stereo partly drawn) [Compound 72, N-(tert-butyl)-3-((8aS,12S)-3-fluoro-8a-methyl-1,2,6b,7,8,8a,10,12,12a,12b-decahydronaphtho[2′,1′:4,5]indeno[1,2-c]pyrazol-12-yl)propanamide] | 93 | 2 |  |
